Results on 19 compounds are retold here after ChEMBL document CHEMBL1149193, “Selective optimization of side activities: another way for drug discovery” (J Med Chem, 2004).

SMILES strings stand for the structures. Some results are limits rather than exact numbers.

Data set [1] deals with T1, Potassium voltage-gated channel subfamily KQT member 1 (Cavia porcellus, UniProt O70344).
T1 sequence (O70344 whole entry): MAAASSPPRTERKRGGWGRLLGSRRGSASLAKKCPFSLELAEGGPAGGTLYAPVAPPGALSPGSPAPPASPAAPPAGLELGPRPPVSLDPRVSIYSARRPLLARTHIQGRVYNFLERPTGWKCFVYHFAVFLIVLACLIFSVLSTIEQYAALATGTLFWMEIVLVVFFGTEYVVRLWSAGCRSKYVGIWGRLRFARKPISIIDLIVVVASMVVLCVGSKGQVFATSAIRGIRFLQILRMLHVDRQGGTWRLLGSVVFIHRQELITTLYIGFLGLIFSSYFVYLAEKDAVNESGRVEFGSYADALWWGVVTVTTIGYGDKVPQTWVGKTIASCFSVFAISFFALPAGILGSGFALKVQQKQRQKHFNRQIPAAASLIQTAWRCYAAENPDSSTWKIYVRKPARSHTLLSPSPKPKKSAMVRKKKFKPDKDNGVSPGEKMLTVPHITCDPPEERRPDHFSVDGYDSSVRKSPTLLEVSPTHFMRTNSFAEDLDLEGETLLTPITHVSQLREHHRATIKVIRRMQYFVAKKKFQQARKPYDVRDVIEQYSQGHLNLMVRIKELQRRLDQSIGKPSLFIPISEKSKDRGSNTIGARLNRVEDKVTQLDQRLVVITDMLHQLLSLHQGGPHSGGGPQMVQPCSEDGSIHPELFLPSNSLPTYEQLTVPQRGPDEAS
The data set is classed as cell-based, Oocyte.
Description: (§1) Inhibition of guinea pig Iks potassium channel expressed in Xenopus oocytes

Another data set is filed under the species Homo sapiens. The data set is described as follows: cells. The class given is functional, organism-based.
Data set [2] has as its target T2, Endothelin receptor type B (Homo sapiens, UniProt P24530).
T2 sequence (P24530 whole entry): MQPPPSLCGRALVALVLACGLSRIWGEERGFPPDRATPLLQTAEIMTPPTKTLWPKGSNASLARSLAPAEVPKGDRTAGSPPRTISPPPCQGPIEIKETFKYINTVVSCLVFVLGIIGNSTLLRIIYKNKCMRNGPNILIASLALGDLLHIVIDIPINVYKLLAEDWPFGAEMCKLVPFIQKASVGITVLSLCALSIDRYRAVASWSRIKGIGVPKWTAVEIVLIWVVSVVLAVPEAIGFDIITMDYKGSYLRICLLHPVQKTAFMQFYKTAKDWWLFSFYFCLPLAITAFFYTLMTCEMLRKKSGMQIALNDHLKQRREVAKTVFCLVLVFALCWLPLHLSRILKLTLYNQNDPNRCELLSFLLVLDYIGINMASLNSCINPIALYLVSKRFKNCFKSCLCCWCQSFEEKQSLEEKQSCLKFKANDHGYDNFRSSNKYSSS

Data set [3] deals with T3, Endothelin-1 receptor (Homo sapiens, UniProt P25101).
T3 sequence (P25101 whole entry): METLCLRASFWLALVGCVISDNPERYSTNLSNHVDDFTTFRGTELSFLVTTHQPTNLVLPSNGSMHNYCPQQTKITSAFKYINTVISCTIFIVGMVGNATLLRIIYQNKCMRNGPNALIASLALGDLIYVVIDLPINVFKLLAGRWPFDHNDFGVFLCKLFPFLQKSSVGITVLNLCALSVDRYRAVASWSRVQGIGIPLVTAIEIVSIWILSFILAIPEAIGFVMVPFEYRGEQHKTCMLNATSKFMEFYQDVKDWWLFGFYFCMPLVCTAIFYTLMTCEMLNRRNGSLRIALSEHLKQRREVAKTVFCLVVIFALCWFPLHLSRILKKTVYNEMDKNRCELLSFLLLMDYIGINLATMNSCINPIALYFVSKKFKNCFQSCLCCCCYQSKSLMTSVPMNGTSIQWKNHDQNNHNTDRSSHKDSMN
Description: Binding affinity against human Endothelin A receptor

Another data set has as its target D(4) dopamine receptor (Homo sapiens, UniProt P21917).
For data set [4], the target named is T4, Muscarinic acetylcholine receptor M1 (Homo sapiens, UniProt P11229).
T4 sequence (P11229 whole entry): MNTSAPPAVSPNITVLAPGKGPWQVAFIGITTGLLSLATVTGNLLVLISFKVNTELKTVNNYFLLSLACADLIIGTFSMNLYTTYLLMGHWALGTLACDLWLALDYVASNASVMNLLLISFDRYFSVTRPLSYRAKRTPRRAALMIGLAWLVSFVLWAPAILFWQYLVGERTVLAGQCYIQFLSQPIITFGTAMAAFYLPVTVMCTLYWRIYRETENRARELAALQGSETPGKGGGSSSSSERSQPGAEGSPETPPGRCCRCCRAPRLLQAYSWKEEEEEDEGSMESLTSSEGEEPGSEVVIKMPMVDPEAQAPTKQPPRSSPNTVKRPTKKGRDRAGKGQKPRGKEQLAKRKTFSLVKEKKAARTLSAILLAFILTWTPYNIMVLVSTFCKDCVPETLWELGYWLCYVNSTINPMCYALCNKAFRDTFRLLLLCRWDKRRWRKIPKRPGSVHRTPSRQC
Description: Binding affinity towards muscarinic M1 receptor

In data set [5] the target is T5, Acetylcholinesterase (Electrophorus electricus, UniProt O42275).
Description: (§2) Inhibitory concentration towards acetylcholinesterase in electric eel
For data set [6], the target named is Muscarinic acetylcholine receptor. The class given is protein assay.
Description: (§3) Binding affinity towards human muscarinic receptor
Data set [7] deals with T6, Adrenergic receptor alpha-1 (Homo sapiens, UniProt P35348+P25100+P35368).
T6 sequence (P35348 whole entry): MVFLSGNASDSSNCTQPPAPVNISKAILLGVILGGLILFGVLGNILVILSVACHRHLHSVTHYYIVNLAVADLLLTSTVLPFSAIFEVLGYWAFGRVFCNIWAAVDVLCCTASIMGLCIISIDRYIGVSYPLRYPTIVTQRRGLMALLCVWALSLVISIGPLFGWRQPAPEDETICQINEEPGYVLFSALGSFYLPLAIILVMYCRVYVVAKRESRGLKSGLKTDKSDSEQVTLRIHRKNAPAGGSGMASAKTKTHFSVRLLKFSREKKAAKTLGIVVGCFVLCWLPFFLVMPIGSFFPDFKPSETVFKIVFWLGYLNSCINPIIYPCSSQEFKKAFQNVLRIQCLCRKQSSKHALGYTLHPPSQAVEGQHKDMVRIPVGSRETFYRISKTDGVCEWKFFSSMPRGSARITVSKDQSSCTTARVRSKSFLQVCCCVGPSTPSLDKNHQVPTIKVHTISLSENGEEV
T6 sequence (P25100 whole entry): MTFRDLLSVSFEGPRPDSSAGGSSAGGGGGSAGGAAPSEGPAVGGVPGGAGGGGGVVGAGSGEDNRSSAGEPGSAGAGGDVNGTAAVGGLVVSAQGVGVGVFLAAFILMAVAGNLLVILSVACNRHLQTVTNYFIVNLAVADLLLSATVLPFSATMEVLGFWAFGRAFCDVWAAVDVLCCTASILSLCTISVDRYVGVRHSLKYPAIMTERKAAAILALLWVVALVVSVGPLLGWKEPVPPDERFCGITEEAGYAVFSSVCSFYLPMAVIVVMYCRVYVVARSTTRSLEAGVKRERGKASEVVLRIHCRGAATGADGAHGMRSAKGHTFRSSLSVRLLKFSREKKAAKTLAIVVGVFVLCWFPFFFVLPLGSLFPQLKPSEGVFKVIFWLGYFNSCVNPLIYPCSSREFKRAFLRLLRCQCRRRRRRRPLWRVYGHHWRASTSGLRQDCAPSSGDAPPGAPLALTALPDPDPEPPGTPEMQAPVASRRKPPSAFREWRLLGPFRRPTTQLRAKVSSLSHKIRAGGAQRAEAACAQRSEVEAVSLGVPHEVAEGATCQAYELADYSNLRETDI
T6 sequence (P35368 whole entry): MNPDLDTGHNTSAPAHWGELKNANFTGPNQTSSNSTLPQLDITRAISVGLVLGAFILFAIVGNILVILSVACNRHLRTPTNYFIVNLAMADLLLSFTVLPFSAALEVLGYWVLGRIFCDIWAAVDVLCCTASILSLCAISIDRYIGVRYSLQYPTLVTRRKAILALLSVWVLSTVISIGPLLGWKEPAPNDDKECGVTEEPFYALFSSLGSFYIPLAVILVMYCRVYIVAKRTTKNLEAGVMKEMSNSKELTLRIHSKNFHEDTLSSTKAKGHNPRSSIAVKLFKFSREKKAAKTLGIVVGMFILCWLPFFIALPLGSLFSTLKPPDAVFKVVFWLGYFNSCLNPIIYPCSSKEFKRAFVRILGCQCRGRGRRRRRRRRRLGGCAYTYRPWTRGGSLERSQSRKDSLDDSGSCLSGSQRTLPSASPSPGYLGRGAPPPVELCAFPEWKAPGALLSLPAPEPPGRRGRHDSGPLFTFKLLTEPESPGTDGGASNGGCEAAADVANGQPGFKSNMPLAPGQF
Description: Binding affinity towards human alpha-1 adrenergic receptor

For data set [8], the target named is T5, Acetylcholinesterase. The class given is functional.
Description: as §2
Data set [9] concerns the target T3, Endothelin-1 receptor. The source holds these as a separate data set.
Description: (§4) Inhibitory concentration against Endothelin A receptor
For data set [10], the target named is T3, Endothelin-1 receptor. This is another data set of the same source.
Description: as §4
For the next data set, the species on record is Rattus norvegicus. The class given is functional.
A short description of a further data set: in vivo. Particulars: rat.
For data set [11], the target named is T7, Muscarinic acetylcholine receptor M4 (Homo sapiens, UniProt P08173).
T7 sequence (P08173 whole entry): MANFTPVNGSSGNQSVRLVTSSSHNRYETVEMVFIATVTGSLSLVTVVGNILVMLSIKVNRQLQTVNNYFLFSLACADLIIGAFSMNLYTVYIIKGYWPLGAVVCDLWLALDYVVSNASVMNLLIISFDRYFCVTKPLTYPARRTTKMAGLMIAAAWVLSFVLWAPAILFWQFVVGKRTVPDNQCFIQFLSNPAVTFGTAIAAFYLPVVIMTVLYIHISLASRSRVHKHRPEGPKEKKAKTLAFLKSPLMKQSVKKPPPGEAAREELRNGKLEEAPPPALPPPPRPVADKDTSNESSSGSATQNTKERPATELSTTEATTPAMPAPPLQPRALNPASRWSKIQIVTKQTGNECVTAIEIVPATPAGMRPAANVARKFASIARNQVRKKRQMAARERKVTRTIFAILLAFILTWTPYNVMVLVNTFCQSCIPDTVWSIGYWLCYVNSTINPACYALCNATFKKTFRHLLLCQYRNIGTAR
Description: as §3

For data set [12], the target named is T1, Potassium voltage-gated channel subfamily KQT member 1. The data set is classed as functional, cell-based, Oocyte.
Description: as §1
The target of the next data set is D(3) dopamine receptor (Homo sapiens, UniProt P35462).
Sequence of D(3) dopamine receptor (P35462 whole entry): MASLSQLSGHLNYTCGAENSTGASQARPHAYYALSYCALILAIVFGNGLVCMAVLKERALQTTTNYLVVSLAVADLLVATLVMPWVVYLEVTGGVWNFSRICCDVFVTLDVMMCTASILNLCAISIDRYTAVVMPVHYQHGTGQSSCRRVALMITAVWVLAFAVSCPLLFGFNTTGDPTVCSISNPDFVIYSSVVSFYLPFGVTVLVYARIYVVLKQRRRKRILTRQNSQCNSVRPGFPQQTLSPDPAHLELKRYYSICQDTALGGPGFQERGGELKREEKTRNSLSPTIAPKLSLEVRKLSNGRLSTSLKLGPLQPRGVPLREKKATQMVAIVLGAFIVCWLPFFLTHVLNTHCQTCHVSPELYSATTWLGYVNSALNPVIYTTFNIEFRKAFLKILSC

T5 sequence (O42275 whole entry): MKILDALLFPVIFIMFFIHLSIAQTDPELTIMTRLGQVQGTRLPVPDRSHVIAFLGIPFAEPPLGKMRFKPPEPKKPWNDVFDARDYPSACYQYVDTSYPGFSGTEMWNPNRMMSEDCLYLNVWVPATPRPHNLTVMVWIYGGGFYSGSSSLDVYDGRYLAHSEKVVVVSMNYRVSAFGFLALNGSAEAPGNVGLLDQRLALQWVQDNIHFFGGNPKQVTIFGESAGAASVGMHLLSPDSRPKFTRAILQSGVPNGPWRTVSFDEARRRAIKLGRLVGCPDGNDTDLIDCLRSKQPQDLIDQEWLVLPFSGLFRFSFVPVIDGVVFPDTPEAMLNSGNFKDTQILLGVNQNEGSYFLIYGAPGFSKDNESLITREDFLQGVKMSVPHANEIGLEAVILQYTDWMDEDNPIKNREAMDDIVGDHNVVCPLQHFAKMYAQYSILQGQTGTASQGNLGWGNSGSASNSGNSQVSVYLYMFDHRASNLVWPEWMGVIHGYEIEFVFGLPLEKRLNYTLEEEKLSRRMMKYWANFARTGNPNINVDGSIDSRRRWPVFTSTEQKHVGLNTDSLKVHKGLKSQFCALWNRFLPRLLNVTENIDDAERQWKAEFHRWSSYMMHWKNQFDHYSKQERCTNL
Sequence of D(4) dopamine receptor (P21917 whole entry, looked up): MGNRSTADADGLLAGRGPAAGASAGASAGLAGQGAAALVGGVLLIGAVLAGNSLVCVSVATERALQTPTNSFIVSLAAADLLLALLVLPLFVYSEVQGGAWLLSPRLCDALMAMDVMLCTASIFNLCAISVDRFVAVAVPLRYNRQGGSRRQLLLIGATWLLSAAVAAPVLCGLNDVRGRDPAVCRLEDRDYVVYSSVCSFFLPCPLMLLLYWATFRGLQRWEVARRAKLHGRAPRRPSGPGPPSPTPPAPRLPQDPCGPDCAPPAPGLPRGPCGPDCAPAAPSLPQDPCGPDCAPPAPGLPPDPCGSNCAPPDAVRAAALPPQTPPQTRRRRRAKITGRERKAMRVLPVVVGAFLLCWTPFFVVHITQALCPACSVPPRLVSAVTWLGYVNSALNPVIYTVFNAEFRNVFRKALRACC
Description for D(3) dopamine receptor: Binding affinity against Dopamine receptor D3
Description for D(4) dopamine receptor: Binding affinity against human Dopamine receptor D4 versus hD2, hD3 receptor
Description for Homo sapiens: Antiviral activity against human respiratory syncytial virus (RSV)
Description for Rattus norvegicus: Dose required for oral activity in rats

Turning to `CCS(=O)(=O)N(C)C1c2cc(C#N)ccc2OC(C)(C)[C@@H]1O` (single isomer, unassigned), the IC50 (as a rule, the concentration needed to halve the response being measured) in [1] was determined as 5 µM.
The compound `NC(=O)CCN(CCC(N)=O)S(=O)(=O)c1cccc(Nc2nc(Nc3cccc(S(=O)(=O)N(CCC(N)=O)CCC(N)=O)c3)nc(Nc3ccc(/C=C/c4ccc(Nc5nc(Nc6cccc(S(=O)(=O)N(CCC(N)=O)CCC(N)=O)c6)nc(Nc6cccc(S(=O)(=O)N(CCC(N)=O)CCC(N)=O)c6)n5)cc4S(=O)(=O)O)c(S(=O)(=O)O)c3)n2)c1` returned a 50% inhibitory concentration (IC50) in the data set filed under Homo sapiens of 150 nM.
Consider `COc1cc(OC)nc(CC(C(=O)O)C(C)(Oc2ccc(C(C)C)cc2)c2ccccc2)n1` (configuration not stated), for which the Ki (commonly the equilibrium dissociation constant of an inhibitor or competing ligand from its target) in [2] is 3 µM; at Endothelin-1 receptor [3], 250 nM.
At D(4) dopamine receptor, `COc1cccc(CN2CC[C@H](NC(=O)c3cc(Cl)c(NC(=O)C4CC4)cc3OC)C2)c1` registered a Ki of 5.62 nM.
In turn, `Cc1cc(-c2ccccc2)nnc1NCCN1CCOCC1` [MINAPRINE] came in with a Ki in [4] of 17000 nM. Moreover, the half-maximal inhibitory concentration (IC50) at Acetylcholinesterase [5] worked out at 600 µM.
As for `O=C1Cc2cc(CCN3CCN(c4nsc5ccccc45)CC3)c(Cl)cc2N1` [ZIPRASIDONE], the results for the inhibition constant (Ki) in data set [6] and in data set [7] were over 5 µM and 12 nM, respectively.
The compound `c1ccc(-c2ccc(NCCCCN3CCc4ccccc4C3)nn2)cc1` returned an IC50 against Acetylcholinesterase [8] of 1.9 µM. In other words, the single-digit micromolar range.
Turning to `Cc1cc(NCCN2C3CCCC2CC3)nnc1-c1ccccc1`, affinity in data set [4] was put at a Ki of 50 nM.
For `Cc1cc(NCCN2C3CCCC2CC3)nnc1-c1ccccc1O`, the affinity in [4] corresponds to a Ki of 3 nM.
`Cc1cc(NCCN2CCOCC2)nnc1-c1ccccc1` had a Ki in data set [4] of 550 nM.
With `NC(=O)CCN(CCC(N)=O)S(=O)(=O)c1cccc(Nc2nc(Nc3cccc(S(=O)(=O)N(CCC(N)=O)CCC(N)=O)c3)nc(Nc3ccc(-c4ccc(Nc5nc(Nc6cccc(S(=O)(=O)N(CCC(N)=O)CCC(N)=O)c6)nc(Nc6cccc(S(=O)(=O)N(CCC(N)=O)CCC(N)=O)c6)n5)cc4S(=O)(=O)O)c(S(=O)(=O)O)c3)n2)c1`, in the data set filed under Homo sapiens, the IC50 came to 50 nM.
Regarding `COc1cc(OC)nc(CC(C(=O)O)C(C)(Oc2ccc(SC)cc2)c2ccccc2)n1` (configuration not stated), the results for the Ki (in data set [2]; on Endothelin-1 receptor [3]) were 4.7 µM and 160 nM, respectively.
`Nc1ccc(S(=O)(=O)Nc2nccs2)cc1` [SULFATHIAZOLE] gave an IC50 against Endothelin-1 receptor [9] of 69 µM.
In turn, `Cc1noc(NS(=O)(=O)c2ccccc2-c2ccc(-c3ncco3)cc2CNC(=O)CC(C)(C)C)c1C` showed a Ki on Endothelin-1 receptor [10] of 0.01 nM. In the data set filed under Rattus norvegicus, the Dose turned out to be 3 µM/kg. Besides, in “in vivo”, the bioavailability (usually dose-corrected exposure relative to a reference, in per cent) is 100%.
For `c1ccc(-c2ccc(NCCN3CCCCC3)nn2)cc1`, the half-inhibitory concentration (IC50) against Acetylcholinesterase [8] came to 13 µM.
The compound `CN(C)CCOC1=Cc2ccccc2Sc2ccc(Cl)cc21` [ZOTEPINE] gave an inhibitory constant (Ki) in [11] of 550 nM.
As for `CCS(=O)(=O)N(C)C1c2cc(C#N)ccc2OC(C)(C)[C@H]1O` (single isomer, unassigned), the IC50 in data set [12] is 6.2 µM; in data set [1], 39 µM.
For `CCCCN1CCCC1CNC(=O)c1cc(C#N)c2ccccc2c1OC` (configuration not stated) [NAFADOTRIDE], the affinity at D(3) dopamine receptor, expressed as Ki, was 0.11 nM.
With `O=C1NCCN1CCN1CCC(c2cn(-c3ccc(F)cc3)c3ccc(Cl)cc23)CC1` [SERTINDOLE], the inhibitory constant (Ki) in data set [6] is over 5 µM; in data set [7], 1.8 nM.
